Here are results for seven cell lines from the supplement of paper PMC10307832.

Experiment in all cases: relative viability (nuclei count vs DMSO), 5 days (fraction); higher = more cells survive
Compound in experiment [1]: OCc1c[nH]c2ccccc12 [Indole-3-carbinol] + Cc1cc(Nc2cc(N3CCN(C)CC3)nc(Sc3ccc(NC(=O)C4CC4)cc3)n2)n[nH]1 [Tozasertib] (partner 0.1 µM)
In a few lines: (§1)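 Medians of duplicate plates are given as relative viability. That measure is the nuclei count in treated wells divided by the count in vehicle wells. Counts were taken on 4× images of lung cancer cell lines in 1536-well plates, 5 days after pin-tool dosing the day after seeding with one drug alone or a fixed anchor-drug dose plus five library-drug doses (not always all listed) in √10 steps.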

Compound in experiment [2]: OCc1c[nH]c2ccccc12 [Indole-3-carbinol] + Cc1nc(NC(=O)N2CCC[C@H]2C(N)=O)sc1-c1ccnc(C(C)(C)C(F)(F)F)c1 [Alpelisib] (partner 2 µM)
In a few lines:
as §1

Compound in experiment [3]: OCc1c[nH]c2ccccc12 [Indole-3-carbinol] + CS(=O)(=O)N1CCN(Cc2cc3nc(-c4cccc5[nH]ncc45)nc(N4CCOCC4)c3s2)CC1 [Pictilisib] (partner 1 µM)
The method, boiled down: as §1

Compound in experiment [4]: OCc1c[nH]c2ccccc12 [Indole-3-carbinol] + O=C(CCCCCCC(=O)Nc1ccccc1)NO [Vorinostat] (partner 1 µM)
The method, boiled down:
as §1

Compound in experiment [5]: OCc1c[nH]c2ccccc12 [Indole-3-carbinol] + N=C(N)NC(=N)NCCc1ccccc1 [Phenformin] (partner 250 µM)
The method, boiled down:
as §1

For NCI-H838, the relative viability is 0.265 in experiment [1] (first compound 0.253 µM); 0.308 in experiment [1] (first compound 0.8 µM); 0.301 in experiment [1] (first compound 2.53 µM); 0.286 in experiment [1] (first compound 8 µM); 1.04 in experiment [2] (first compound 0.253 µM); 1.05 in experiment [2] (first compound 0.8 µM). In addition, the relative viability in experiment [2] (first compound 2.53 µM) is 1.01; in experiment [2] (first compound 8 µM), 0.975; in experiment [3] (first compound 0.253 µM) it was 0.537; in experiment [3] (first compound 0.8 µM), 0.431; in experiment [3] (first compound 2.53 µM) it was 0.459; in experiment [3] (first compound 8 µM), 0.431. Further, the relative viability was determined as 0.741 in experiment [4] (first compound 0.253 µM); 0.737 in experiment [4] (first compound 0.8 µM); 0.766 in experiment [4] (first compound 2.53 µM); 0.654 in experiment [4] (first compound 8 µM); 0.607 in experiment [5] (first compound 0.253 µM); 0.526 in experiment [5] (first compound 0.8 µM). Besides, the relative viability is 0.735 in experiment [5] (first compound 2.53 µM) and 0.553 in experiment [5] (first compound 8 µM).

For NCI-H1355, the relative viability in experiment [1] (first compound 0.253 µM) stood at 0.525; in experiment [1] (first compound 0.8 µM), 0.619; in experiment [1] (first compound 2.53 µM) it was 0.551; in experiment [1] (first compound 8 µM), 0.564; in experiment [2] (first compound 0.253 µM), 0.809; in experiment [2] (first compound 0.8 µM), 0.875. Moreover, the relative viability in experiment [2] (first compound 2.53 µM) was 0.766; in experiment [2] (first compound 8 µM), 0.672; in experiment [3] (first compound 0.253 µM), 0.324; in experiment [3] (first compound 0.8 µM) it was 0.415; in experiment [3] (first compound 2.53 µM) it was 0.435; in experiment [3] (first compound 8 µM) it was 0.428. The relative viability in experiment [4] (first compound 0.253 µM) was 0.612; in experiment [4] (first compound 0.8 µM), 0.69; in experiment [4] (first compound 2.53 µM), 0.667; in experiment [4] (first compound 8 µM), 0.63; in experiment [5] (first compound 0.253 µM), 0.48; in experiment [5] (first compound 0.8 µM) it was 0.455. Also, the relative viability in experiment [5] (first compound 2.53 µM) amounted to 0.435; in experiment [5] (first compound 8 µM) it was 0.462.

Turning to NCI-H1395, the relative viability amounted to 0.705 in experiment [1] (first compound 0.253 µM); 0.77 in experiment [1] (first compound 0.8 µM); 0.734 in experiment [1] (first compound 2.53 µM); 0.758 in experiment [1] (first compound 8 µM); 1.31 in experiment [2] (first compound 0.253 µM); 0.984 in experiment [2] (first compound 0.8 µM). Moreover, the relative viability was determined as 0.983 in experiment [2] (first compound 2.53 µM); 1.02 in experiment [2] (first compound 8 µM); 0.616 in experiment [3] (first compound 0.253 µM); 0.67 in experiment [3] (first compound 0.8 µM); 0.639 in experiment [3] (first compound 2.53 µM); 0.662 in experiment [3] (first compound 8 µM). Besides, the relative viability in experiment [4] (first compound 0.253 µM) turned out to be 0.694; in experiment [4] (first compound 0.8 µM) it was 0.65; in experiment [4] (first compound 2.53 µM) it was 0.628; in experiment [4] (first compound 8 µM), 1.05; in experiment [5] (first compound 0.253 µM) it was 0.434; in experiment [5] (first compound 0.8 µM), 0.405. The relative viability in experiment [5] (first compound 2.53 µM) came to 0.432; in experiment [5] (first compound 8 µM) it was 0.457.

For the cell line NCI-H1437, the relative viability in experiment [1] (first compound 0.253 µM) is 0.412; in experiment [1] (first compound 0.8 µM), 0.439; in experiment [1] (first compound 2.53 µM) it was 0.421; in experiment [1] (first compound 8 µM), 0.424; in experiment [2] (first compound 0.253 µM), 0.928; in experiment [2] (first compound 0.8 µM) it was 1.04. Further, the relative viability in experiment [2] (first compound 2.53 µM) worked out at 0.937; in experiment [2] (first compound 8 µM) it was 0.811; in experiment [3] (first compound 0.253 µM), 0.535; in experiment [3] (first compound 0.8 µM), 0.438; in experiment [3] (first compound 2.53 µM), 0.466; in experiment [3] (first compound 8 µM) it was 0.433. The relative viability in experiment [4] (first compound 0.253 µM) was found to be 0.827; in experiment [4] (first compound 0.8 µM) it was 0.979; in experiment [4] (first compound 2.53 µM) it was 0.861; in experiment [4] (first compound 8 µM) it was 0.868; in experiment [5] (first compound 0.253 µM) it was 0.308; in experiment [5] (first compound 0.8 µM) it was 0.323. The relative viability worked out at 0.29 in experiment [5] (first compound 2.53 µM) and 0.448 in experiment [5] (first compound 8 µM).

Consider NCI-H1651, for which the relative viability in experiment [1] (first compound 0.253 µM) amounted to 0.723; in experiment [1] (first compound 0.8 µM), 0.922; in experiment [1] (first compound 2.53 µM), 0.834; in experiment [1] (first compound 8 µM) it was 0.614; in experiment [2] (first compound 0.253 µM), 0.744; in experiment [2] (first compound 0.8 µM), 0.97. Moreover, the relative viability in experiment [2] (first compound 2.53 µM) was found to be 0.954; in experiment [2] (first compound 8 µM) it was 0.895; in experiment [3] (first compound 0.253 µM), 0.613; in experiment [3] (first compound 0.8 µM), 0.486; in experiment [3] (first compound 2.53 µM), 0.499; in experiment [3] (first compound 8 µM), 0.554. Moreover, the relative viability turned out to be 0.517 in experiment [4] (first compound 0.253 µM); 0.55 in experiment [4] (first compound 0.8 µM); 0.616 in experiment [4] (first compound 2.53 µM); 0.646 in experiment [4] (first compound 8 µM); 0.287 in experiment [5] (first compound 0.253 µM); 0.349 in experiment [5] (first compound 0.8 µM). Moreover, the figures for the relative viability in experiment [5] (first compound 2.53 µM) and in experiment [5] (first compound 8 µM) were 0.315 and 0.424, respectively.

Regarding NCI-H1666, the relative viability was found to be 0.556 in experiment [1] (first compound 0.253 µM); 0.638 in experiment [1] (first compound 0.8 µM); 0.526 in experiment [1] (first compound 2.53 µM); 0.657 in experiment [1] (first compound 8 µM); 0.804 in experiment [2] (first compound 0.253 µM); 0.998 in experiment [2] (first compound 0.8 µM). Besides, the relative viability in experiment [2] (first compound 2.53 µM) came out at 0.906; in experiment [2] (first compound 8 µM), 0.916; in experiment [3] (first compound 0.253 µM), 0.339; in experiment [3] (first compound 0.8 µM), 0.548; in experiment [3] (first compound 2.53 µM), 0.539; in experiment [3] (first compound 8 µM), 0.394. Further, the relative viability in experiment [4] (first compound 0.253 µM) was found to be 0.926; in experiment [4] (first compound 0.8 µM), 1.1; in experiment [4] (first compound 2.53 µM), 1.08; in experiment [4] (first compound 8 µM), 0.995; in experiment [5] (first compound 0.253 µM), 0.592; in experiment [5] (first compound 0.8 µM), 0.515. For the same cell line, the relative viability in experiment [5] (first compound 2.53 µM) stood at 0.582; in experiment [5] (first compound 8 µM) it was 0.558.

On to NCI-H1734, for which the relative viability in experiment [1] (first compound 0.253 µM) stood at 0.276; in experiment [1] (first compound 0.8 µM), 0.263; in experiment [1] (first compound 2.53 µM) it was 0.259; in experiment [1] (first compound 8 µM), 0.27; in experiment [2] (first compound 0.253 µM), 0.692; in experiment [2] (first compound 0.8 µM), 0.725. Also, the relative viability worked out at 0.719 in experiment [2] (first compound 2.53 µM); 0.674 in experiment [2] (first compound 8 µM); 0.404 in experiment [3] (first compound 0.253 µM); 0.423 in experiment [3] (first compound 0.8 µM); 0.492 in experiment [3] (first compound 2.53 µM); 0.487 in experiment [3] (first compound 8 µM). Besides, the relative viability was 0.799 in experiment [4] (first compound 0.253 µM); 0.809 in experiment [4] (first compound 0.8 µM); 0.803 in experiment [4] (first compound 2.53 µM); 0.774 in experiment [4] (first compound 8 µM); 0.406 in experiment [5] (first compound 0.253 µM); 0.394 in experiment [5] (first compound 0.8 µM). For the same cell line, the relative viability in experiment [5] (first compound 2.53 µM) was 0.34; in experiment [5] (first compound 8 µM), 0.333.
